Experiment [1] concerns Mycobacterium tuberculosis. Description: MMV: Screen against Mtb, single point, non replicating, at 25uM. Type of experiment: functional.
The test system of experiment [2] is Mycobacterium tuberculosis. Description: MMV: Screen against Mtb, single point, replicating, at 25uM. Type of experiment: functional.

In ChEMBL document CHEMBL2094260, “Malaria Box Tuberculosis Screening Data” one finds inhibition data, which are given here for 47 compounds.

`CN(C)CCCNc1c2ccccc2nc2ccccc12`: the results for the inhibition at 25 µM in experiment [1] and in experiment [2] were 17.8% and 18.4%, respectively.

Take `COc1ccc(-c2c(C)nn3c(N)c(C#N)cnc23)cc1OC`: the inhibition at 25 µM in experiment [1] came out at 11.5%; in experiment [2], 5.83%.

Take `CSC1=NC(=Nc2c(C)cccc2C)C2(CCC(C(C)(C)C)CC2)N1c1ccc(Cl)cc1` (centres undefined): the inhibition at 25 µM in experiment [1] stood at 9.94%; in experiment [2] it was 1.28%.

With `COc1ccc2nc(C)cc(Nc3ccccc3O)c2c1`, the inhibition at 25 µM was determined as 7.14% in experiment [1] and 13.6% in experiment [2].

For `Cc1cc(C)cc(Nc2cc(C)nc3nc(C(F)(F)F)nn23)c1`, the inhibition at 25 µM in experiment [1] was determined as 4.53%; in experiment [2] it was 7.5%.

Take `O=C(NCC(c1ccsc1)N1CCCCCC1)c1ccc(C(F)(F)F)cc1` (centres undefined): the inhibition at 25 µM in experiment [1] came out at 10.5%; in experiment [2] it was 8.41%.

As for `COc1ccc(-c2cc3c(SCC(=O)Nc4cc(C(F)(F)F)ccc4Cl)nccn3n2)cc1`, the inhibition at 25 µM in experiment [1] came to 15%; in experiment [2], 10.2%.

For `Cc1ccc(-c2cc3c(SCC(=O)Nc4cc(C(F)(F)F)ccc4Cl)nccn3n2)cc1`, the values for the inhibition at 25 µM in experiment [1] and in experiment [2] were 8.19% and 3.25%, respectively.

With `CCN(CC)CCNc1ccnc2cc(Cl)ccc12`, the inhibition at 25 µM in experiment [1] worked out at 18.3%; in experiment [2] it was 4.01%.

Take `CCCCCC(=O)N1c2ccccc2N=C2CC(c3ccc(OC)c(OC)c3)CC(O)=C2C1c1ccc(C(F)(F)F)cc1` (centres undefined): the inhibition at 25 µM in experiment [1] was found to be 16%; in experiment [2] it was 12.5%.

`Cc1cc(Nc2ccc3ccccc3c2)n2ncnc2n1`: the inhibition at 25 µM in experiment [1] was 19.9%; in experiment [2] it was -2.52%.

Regarding `COc1ccc(-c2nc(NC(=O)CS(=O)(=O)c3ccc(F)cc3)sc2C)cc1`, the figures for the inhibition at 25 µM in experiment [1] and in experiment [2] were 21.5% and 14.9%, respectively.

Take `O=C(O)C1Cc2c([nH]c3ccccc23)C(c2ccc(Cl)cc2Cl)N1` (centres undefined): the inhibition at 25 µM in experiment [1] is 8.72%; in experiment [2], 13.7%.

Take `FC(F)(F)c1ccc(Nc2nnnc3ccccc23)cc1`: the figures for the inhibition at 25 µM in experiment [1] and in experiment [2] were 31.2% and 44.2%, respectively.

Turning to `Cc1ccc(N2C(=O)C3C(C2=O)C2(c4ccccc4)C(=O)C3(c3ccccc3)C(c3ccccc3)=C2c2ccccc2)cc1` (centres undefined), the inhibition at 25 µM amounted to 4.88% in experiment [1] and 9.93% in experiment [2].

For `CCc1c(C)c(=N)c2ccccc2n1C`, the figures for the inhibition at 25 µM in experiment [1] and in experiment [2] were 2.08% and 4.16%, respectively.

Regarding `COc1cccc(NC(=O)[C@H](C(C)C)n2c(=O)[nH]c3ccccc3c2=O)c1`, the inhibition at 25 µM turned out to be 5.22% in experiment [1] and 7.35% in experiment [2].

As for `CCOC(=O)c1cn(CC)c2cc(N(C)CCc3ccc(OC)c(OC)c3)c(F)cc2c1=O`, the values for the inhibition at 25 µM in experiment [1] and in experiment [2] were 11.9% and 14.8%, respectively.

Turning to `CC(C)(C)c1ccc(O)c(CNC2CCCCC2)c1`, the inhibition at 25 µM in experiment [1] was determined as 16.6%; in experiment [2], 38.8%.

As for `O=[N+]([O-])c1ccc(C=NNc2nc3ccccc3[nH]2)cc1`, the results for the inhibition at 25 µM in experiment [1] and in experiment [2] were 16.2% and 16.3%, respectively.

Turning to `CC1CN(C(=O)c2sc3ccccc3c2Cl)CC(C)O1` (centres undefined), the inhibition at 25 µM amounted to 22.9% in experiment [1] and 15.5% in experiment [2].

As to `CN(C)c1ccc(C=Cc2nc(=O)c3ccccc3o2)cc1`, the inhibition at 25 µM was found to be 20.4% in experiment [1] and 11.9% in experiment [2].

Consider `COc1ccc(C2=C(c3ccc(OC)cc3)C3(c4ccccc4)C(=O)C2(c2ccccc2)C2C(=O)N(c4ccc(C)cc4)C(=O)C23)cc1` (centres undefined), for which the inhibition at 25 µM in experiment [1] is 11%; in experiment [2] it was 10.1%.

For `CCOC(=O)c1c(NC(=O)c2ccccc2)sc2c(O)c(CN(CC)CC)ccc12`, the inhibition at 25 µM was 16% in experiment [1] and 51.8% in experiment [2].

As for `CCOC(=O)C1=C(c2ccccc2)N=c2sc(=Cc3cc(C)n(-c4ccc(F)cc4)c3C)c(=O)n2C1c1cccc(OC)c1OC` (centres undefined), the inhibition at 25 µM turned out to be 6.1% in experiment [1] and 1.88% in experiment [2].

On to `CCC1(C)CC(CCNCc2ccccc2O)(c2ccc(C)cc2)CCO1` (centres undefined), for which the inhibition at 25 µM is 2.96% in experiment [1] and 14.5% in experiment [2].

With `Cc1cc(Nc2ccc(C)c(Cl)c2)n2nc(C(F)(F)F)nc2n1`, the figures for the inhibition at 25 µM in experiment [1] and in experiment [2] were 4.53% and 19.5%, respectively.

Turning to `Fc1ccc2[nH]c3c(NCCCN4CCOCC4)ncnc3c2c1`, the inhibition at 25 µM in experiment [1] is 13.8%; in experiment [2], 13.6%.

`COc1ccc(C=C2SC(=N)N(c3ccccc3OC)C2=O)cc1`: the values for the inhibition at 25 µM in experiment [1] and in experiment [2] were 6.97% and 24.5%, respectively.

For the compound `COc1ccc(NC(=O)C2c3ccccc3C(=O)N(CC(C)C)C2c2cccs2)cc1Cl` (centres undefined), the inhibition at 25 µM was 22.2% in experiment [1] and -1.46% in experiment [2].

As for `CCOC(=O)c1c(C)n(-c2ccc(Cl)cc2)c2ccc(OC(=O)C=Cc3ccccc3)cc12`, the values for the inhibition at 25 µM in experiment [1] and in experiment [2] were 18.8% and 25.1%, respectively.

As to `Cc1cccc(Nc2nc(N)c3ccccc3n2)c1`, the inhibition at 25 µM was -2.28% in experiment [1] and 9.63% in experiment [2].

As for `CCn1c(CN2CCN(Cc3ccccc3)CC2)nc2cc(NC(=O)c3cccs3)ccc21`, the figures for the inhibition at 25 µM in experiment [1] and in experiment [2] were 15.2% and 12.5%, respectively.

Take `COc1ccccc1CNC(=O)CCn1c(=O)[nH]c2ccccc2c1=O`: the inhibition at 25 µM was 11.2% in experiment [1] and 6.74% in experiment [2].

For `COc1cc(OC)c(N(C)C(=O)c2cc3c(s2)-c2ccccc2S(=O)(=O)C3)cc1Cl`, the inhibition at 25 µM in experiment [1] was found to be 6.97%; in experiment [2], 38%.

Take `Oc1ccccc1CNCC12CC3CC(CC(C3)C1)C2`: the inhibition at 25 µM was determined as 18.7% in experiment [1] and 49.7% in experiment [2].

As for `CNCCCNc1ccnc2cc(Cl)ccc12`, the inhibition at 25 µM in experiment [1] was 5.05%; in experiment [2], 8.11%.

Regarding `COc1ccccc1CNC(=O)CCn1c(=O)[nH]c2ccsc2c1=O`, the figures for the inhibition at 25 µM in experiment [1] and in experiment [2] were 0.338% and 9.93%, respectively.

Turning to `COc1ccc(Br)cc1C1Nc2ccc3ccccc3c2C2=C1C(=O)CC(c1ccccc1)C2` (centres undefined), the inhibition at 25 µM in experiment [1] was determined as 20.9%; in experiment [2], 16.2%.

On to `Cc1cc(C=C2SC(=Nc3ccccc3)N(C3CCCC3)C2=O)c(C)n1-c1ccc(Cl)cc1`, for which the results for the inhibition at 25 µM in experiment [1] and in experiment [2] were -1.41% and 2.04%, respectively.

For the compound `CCc1ccc(Nc2cc(C)c3ccc(O)cc3n2)cc1`, the inhibition at 25 µM in experiment [1] is 17.3%; in experiment [2] it was 4.16%.

With `Oc1ccc(C(=C(Cl)Cl)c2ccc(O)cc2)cc1`, the inhibition at 25 µM was found to be 0.782% in experiment [1] and 9.95% in experiment [2].

With `COc1cc(CNCCc2ccc(Cl)cc2)cc(OC)c1O`, the inhibition at 25 µM is 35.9% in experiment [1] and 0.392% in experiment [2].

As to `COc1ccc(C(C)=O)cc1N1C(=O)C2C(C1=O)C1(c3ccccc3)C(=O)C2(c2ccccc2)C(c2ccc(C)cc2)=C1c1ccc(C)cc1` (centres undefined), the inhibition at 25 µM in experiment [1] turned out to be 28.1%; in experiment [2] it was 22.4%.

As for `CCCc1c(CC)c(=N)c2ccccc2n1C`, the values for the inhibition at 25 µM in experiment [1] and in experiment [2] were 4% and 16%, respectively.

`CCOC(=O)c1cnc2c(C)cc(C)cc2c1Nc1ccc(OC)c(OC)c1`: the inhibition at 25 µM in experiment [1] stood at 3.83%; in experiment [2], 4.46%.

For `CCCn1c(=N)c(C(=O)NC2CCCCC2)cc2c(=O)n3cccc(C)c3nc21`, the values for the inhibition at 25 µM in experiment [1] and in experiment [2] were 2.38% and -4.62%, respectively.

Broadly, the inhibition is the change of the read-out against control, counted positive when it falls.
